Read-outs that look alike come from different tables or passages of the source.
Legend:
Sprague-Dawley rats = test: Fear-potentiated startle paradigm in rats; type: in vivo, rat
Description: In this anxiety/fear paradigm, rats are first trained to associate a neutral stimulus (a light) with an aversive stimulus (an electric shock to the foot). […] However, when the acoustic stimulus is preceded by a fear cue (the light in this case), there is potentiation of their natural startle response. This potentiation of startle responses is thought to result from a classically conditioned increase in fear. Anxiolysis is inferred when there is a reduction in the magnitude of the fear-potentiated startle response.
The fear potentiated startle equipment (Med-Associates, St-Albans, Vt.) constituted (1) a pressure-sensitive platform upon which the animal is placed (in an enclosure with shock-grid floor), (2) Speakers and amplifier, to deliver acoustic stimulus, (3) Computer controlled light cue, and (4) a computerized interface to deliver the auditory and/or visual stimuli, and to record the magnitude of startle detected by the platform. The whole set up is housed in a sound attenuated and darkened chamber.
The experiment involved three phases; a training phase, a screening phase and the testing phase. […] The second or screening phase involved identifying the rats that learnt to associate the light cue with the shock, which was assessed by measuring their startle response in the absence and the presence of the fear cue. […]

CD-1 strain of mice = test: Elevated plus maze test in CD-1 mice; type: in vivo, mouse; conditions: for entries into the open (anxiogenic) arm of the elevated plus maze: 45-60 min, vs peanut oil control
Protocol: Previous experiments were all conducted in experimental rats. Here we tested the effect of betulinic acid on CD-1 strain of mice. Mice received 0.25 or 2.5 mg/kg of betulinic acid, or peanut oil only (control), intra peritoneally (“i.p.”), and were tested 45-60 minutes later in the elevated plus maze test.

adrenergic α1 = test: MDS Panlabs screen: adrenergic α1; type: binding; conditions: Catecholamines
Protocol: (§1) Tests were conducted by MDS Panlabs to determine whether any of the classical neurotransmitter systems or the peptidergic systems thought to play a role in anxiety are affected by betulinic acid.

MAO A = MAO A (Homo sapiens, UniProt P21397); test: MDS Panlabs screen: MAO A; type: biochemical; conditions: Catecholamines
Protocol: as §1

COMT = COMT (Homo sapiens, UniProt P21964); test: MDS Panlabs screen: COMT; type: biochemical; conditions: Catecholamines
Protocol: as §1

domaine D1 = domaine D1 (Homo sapiens, UniProt P21728); test: MDS Panlabs screen: D1; type: binding; conditions: Catecholamines
Protocol: as §1

DA transporter = DA transporter (Homo sapiens, UniProt Q01959); test: MDS Panlabs screen: DA transporter; type: binding; conditions: Catecholamines
Protocol: as §1

GABAA, BZP = test: MDS Panlabs screen: GABAA, BZP; type: binding; conditions: Gabaergic
Protocol: as §1

Histamine H3 = Histamine H3 (Homo sapiens, UniProt Q9Y5N1); test: MDS Panlabs screen: Histamine H3; type: binding
Protocol: as §1

5-HT1 = test: MDS Panlabs screen: 5-HT1; type: binding; conditions: Serotonin (5-HT)
Protocol: as §1

5-HT2 = test: MDS Panlabs screen: 5-HT2; type: binding; conditions: Serotonin (5-HT)
Protocol: as §1

serotonin transporter = serotonin transporter (Homo sapiens, UniProt P31645); test: MDS Panlabs screen: serotonin transporter; type: binding; conditions: Serotonin (5-HT)
Protocol: as §1

nicototinic = test: MDS Panlabs screen: nicotinic; type: binding; conditions: Acetylcholine
Protocol: as §1

cannabinoid CB2 = cannabinoid CB2 (Homo sapiens, UniProt P34972); test: MDS Panlabs screen: cannabinoid CB2; type: binding; conditions: Peptides
Protocol: as §1

EGF = EGF (Homo sapiens, UniProt P00533); test: MDS Panlabs screen: EGF; type: binding; conditions: Peptides
Protocol: as §1

galanin GALR2 = galanin GALR2 (Homo sapiens, UniProt O43603); test: MDS Panlabs screen: galanin GALR2; type: binding; conditions: Peptides
Protocol: as §1

melanocortin MC4 = melanocortin MC4 (Homo sapiens, UniProt P32245); test: MDS Panlabs screen: melanocortin MC4; type: binding; conditions: Peptides
Protocol: as §1

neuropeptide Y1 = neuropeptide Y1 (Homo sapiens, UniProt P25929); test: MDS Panlabs screen: neuropeptide Y1; type: binding; conditions: Peptides
Protocol: as §1

neuropeptide Y2 = neuropeptide Y2 (Homo sapiens, UniProt P49146); test: MDS Panlabs screen: neuropeptide Y2; type: binding; conditions: Peptides
Protocol: as §1

neurotensin = test: MDS Panlabs screen: neurotensin; type: binding; conditions: Peptides
Protocol: as §1

opiate non-selective = test: MDS Panlabs screen: opiate non-selective; type: binding; conditions: Peptides
Protocol: as §1

somatostatin = test: MDS Panlabs screen: somatostatin; type: binding; conditions: Peptides
Protocol: as §1

tachykinin NK1 = tachykinin NK1 (Homo sapiens, UniProt P25103); test: MDS Panlabs screen: tachykinin NK1; type: binding; conditions: Peptides
Protocol: as §1

tachykinin NK3 = tachykinin NK3 (Homo sapiens, UniProt P29371); test: MDS Panlabs screen: tachykinin NK3; type: binding; conditions: Peptides
Protocol: as §1

VIP1 = VIP1 (Homo sapiens, UniProt P32241); test: MDS Panlabs screen: VIP1; type: binding; conditions: Peptides
Protocol: as §1

[1] = cited from earlier work

Sequence of VIP1 (P32241 31-457): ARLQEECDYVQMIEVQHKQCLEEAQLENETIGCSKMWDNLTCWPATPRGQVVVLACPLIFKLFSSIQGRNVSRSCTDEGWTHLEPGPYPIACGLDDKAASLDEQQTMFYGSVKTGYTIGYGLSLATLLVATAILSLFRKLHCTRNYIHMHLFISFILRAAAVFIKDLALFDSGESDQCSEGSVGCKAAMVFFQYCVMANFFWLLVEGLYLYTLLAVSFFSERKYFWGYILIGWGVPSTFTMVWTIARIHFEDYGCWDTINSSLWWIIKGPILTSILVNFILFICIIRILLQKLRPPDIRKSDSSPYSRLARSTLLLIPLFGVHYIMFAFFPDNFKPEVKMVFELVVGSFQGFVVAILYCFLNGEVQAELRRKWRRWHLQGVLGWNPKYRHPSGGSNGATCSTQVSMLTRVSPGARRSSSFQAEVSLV
Sequence of neuropeptide Y2 (P49146 whole entry): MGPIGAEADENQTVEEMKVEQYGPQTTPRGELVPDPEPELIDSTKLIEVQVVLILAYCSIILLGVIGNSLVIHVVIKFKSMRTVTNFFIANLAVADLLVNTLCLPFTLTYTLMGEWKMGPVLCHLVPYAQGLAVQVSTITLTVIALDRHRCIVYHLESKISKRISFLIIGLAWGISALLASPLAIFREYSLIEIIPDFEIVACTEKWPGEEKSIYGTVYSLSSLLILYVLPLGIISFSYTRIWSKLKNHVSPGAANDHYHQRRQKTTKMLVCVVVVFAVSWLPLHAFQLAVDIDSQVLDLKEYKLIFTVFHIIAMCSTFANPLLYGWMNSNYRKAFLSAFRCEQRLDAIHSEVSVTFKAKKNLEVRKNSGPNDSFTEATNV
Sequence of cannabinoid CB2 (P34972 whole entry): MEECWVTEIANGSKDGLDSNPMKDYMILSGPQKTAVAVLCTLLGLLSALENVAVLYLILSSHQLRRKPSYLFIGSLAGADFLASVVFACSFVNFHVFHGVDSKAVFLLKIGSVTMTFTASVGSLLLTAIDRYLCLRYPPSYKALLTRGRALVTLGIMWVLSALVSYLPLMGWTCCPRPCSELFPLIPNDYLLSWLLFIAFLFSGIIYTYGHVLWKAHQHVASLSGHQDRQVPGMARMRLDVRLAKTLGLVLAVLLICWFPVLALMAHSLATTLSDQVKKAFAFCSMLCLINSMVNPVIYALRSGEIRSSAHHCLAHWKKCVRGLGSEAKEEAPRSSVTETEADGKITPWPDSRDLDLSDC
Sequence of neuropeptide Y1 (P25929 whole entry): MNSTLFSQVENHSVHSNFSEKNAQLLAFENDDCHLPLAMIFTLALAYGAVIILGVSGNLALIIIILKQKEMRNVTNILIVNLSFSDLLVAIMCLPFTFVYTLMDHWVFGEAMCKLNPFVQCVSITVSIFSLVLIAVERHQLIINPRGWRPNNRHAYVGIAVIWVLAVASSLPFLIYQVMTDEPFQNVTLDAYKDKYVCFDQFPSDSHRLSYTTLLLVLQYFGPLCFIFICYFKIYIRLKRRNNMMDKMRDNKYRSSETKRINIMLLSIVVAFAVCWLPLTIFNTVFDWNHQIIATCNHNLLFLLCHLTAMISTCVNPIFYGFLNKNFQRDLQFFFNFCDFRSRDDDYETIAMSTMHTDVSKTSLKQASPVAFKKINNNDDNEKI
Sequence of MAO A (P21397 whole entry, species assumed): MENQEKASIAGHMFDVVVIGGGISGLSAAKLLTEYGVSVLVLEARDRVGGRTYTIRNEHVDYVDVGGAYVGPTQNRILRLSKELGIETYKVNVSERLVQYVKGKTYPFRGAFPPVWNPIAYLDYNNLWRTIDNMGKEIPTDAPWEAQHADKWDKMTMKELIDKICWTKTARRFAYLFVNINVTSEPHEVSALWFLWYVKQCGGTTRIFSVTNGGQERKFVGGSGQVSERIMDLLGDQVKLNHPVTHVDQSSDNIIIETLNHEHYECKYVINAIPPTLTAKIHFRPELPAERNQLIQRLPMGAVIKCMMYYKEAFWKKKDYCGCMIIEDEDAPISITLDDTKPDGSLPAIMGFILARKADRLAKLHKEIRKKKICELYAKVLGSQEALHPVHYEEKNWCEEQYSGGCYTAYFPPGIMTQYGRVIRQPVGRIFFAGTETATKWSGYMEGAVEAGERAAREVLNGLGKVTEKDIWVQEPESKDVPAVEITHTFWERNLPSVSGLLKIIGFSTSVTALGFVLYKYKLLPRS
Sequence of tachykinin NK3 (P29371 whole entry): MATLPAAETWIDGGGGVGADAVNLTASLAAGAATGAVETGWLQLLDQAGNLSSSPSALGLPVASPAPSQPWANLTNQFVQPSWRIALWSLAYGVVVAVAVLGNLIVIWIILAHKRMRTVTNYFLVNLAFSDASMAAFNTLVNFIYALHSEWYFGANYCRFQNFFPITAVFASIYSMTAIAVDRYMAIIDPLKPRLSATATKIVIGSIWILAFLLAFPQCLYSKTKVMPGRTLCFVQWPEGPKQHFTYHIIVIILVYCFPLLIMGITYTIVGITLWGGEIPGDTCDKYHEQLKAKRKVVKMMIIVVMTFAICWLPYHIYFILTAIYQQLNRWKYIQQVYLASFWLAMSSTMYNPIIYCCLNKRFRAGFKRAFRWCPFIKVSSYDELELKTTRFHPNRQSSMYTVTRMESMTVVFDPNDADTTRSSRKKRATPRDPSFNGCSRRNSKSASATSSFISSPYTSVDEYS
Sequence of EGF (P00533 25-1210): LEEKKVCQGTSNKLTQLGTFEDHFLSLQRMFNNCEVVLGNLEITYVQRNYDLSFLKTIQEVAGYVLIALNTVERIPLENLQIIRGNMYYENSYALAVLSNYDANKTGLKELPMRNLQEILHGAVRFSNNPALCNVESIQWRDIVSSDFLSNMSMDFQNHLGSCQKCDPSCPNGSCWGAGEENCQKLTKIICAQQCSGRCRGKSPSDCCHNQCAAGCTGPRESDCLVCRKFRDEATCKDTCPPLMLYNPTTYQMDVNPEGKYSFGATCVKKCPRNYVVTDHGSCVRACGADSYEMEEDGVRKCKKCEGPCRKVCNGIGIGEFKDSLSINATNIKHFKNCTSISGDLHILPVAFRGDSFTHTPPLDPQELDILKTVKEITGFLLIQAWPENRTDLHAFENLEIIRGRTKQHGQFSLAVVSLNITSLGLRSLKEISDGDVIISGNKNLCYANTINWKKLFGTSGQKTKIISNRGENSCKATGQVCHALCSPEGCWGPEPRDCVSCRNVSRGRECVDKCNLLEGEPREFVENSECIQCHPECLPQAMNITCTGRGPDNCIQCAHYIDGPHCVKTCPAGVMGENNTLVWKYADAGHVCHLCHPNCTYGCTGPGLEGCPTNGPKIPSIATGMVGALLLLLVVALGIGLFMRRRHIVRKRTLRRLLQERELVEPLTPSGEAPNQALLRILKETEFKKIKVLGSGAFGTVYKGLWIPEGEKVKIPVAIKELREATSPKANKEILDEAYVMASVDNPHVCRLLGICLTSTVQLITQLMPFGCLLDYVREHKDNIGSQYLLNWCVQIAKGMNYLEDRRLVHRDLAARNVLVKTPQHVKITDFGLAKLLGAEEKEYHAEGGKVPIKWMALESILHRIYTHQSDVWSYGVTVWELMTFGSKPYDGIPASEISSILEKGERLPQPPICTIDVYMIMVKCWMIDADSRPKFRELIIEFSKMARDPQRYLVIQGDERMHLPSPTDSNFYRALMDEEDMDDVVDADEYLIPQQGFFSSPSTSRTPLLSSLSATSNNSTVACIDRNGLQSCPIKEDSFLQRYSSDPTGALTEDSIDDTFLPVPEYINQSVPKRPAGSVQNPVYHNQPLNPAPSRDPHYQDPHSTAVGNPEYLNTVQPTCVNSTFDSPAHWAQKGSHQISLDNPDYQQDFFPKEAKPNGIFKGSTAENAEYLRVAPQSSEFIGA
Sequence of domaine D1 (P21728 whole entry): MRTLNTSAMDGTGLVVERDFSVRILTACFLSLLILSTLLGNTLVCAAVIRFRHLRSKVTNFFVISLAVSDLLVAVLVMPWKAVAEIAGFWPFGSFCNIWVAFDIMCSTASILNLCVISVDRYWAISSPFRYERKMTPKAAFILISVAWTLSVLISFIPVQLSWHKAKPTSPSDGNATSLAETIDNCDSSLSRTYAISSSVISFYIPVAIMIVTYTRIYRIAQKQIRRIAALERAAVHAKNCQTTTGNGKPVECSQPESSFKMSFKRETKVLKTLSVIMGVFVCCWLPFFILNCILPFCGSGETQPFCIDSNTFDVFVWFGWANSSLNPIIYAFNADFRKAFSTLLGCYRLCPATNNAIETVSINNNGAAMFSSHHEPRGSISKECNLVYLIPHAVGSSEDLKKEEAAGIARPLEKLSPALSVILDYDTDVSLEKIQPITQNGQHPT
Sequence of DA transporter (Q01959 whole entry, species assumed): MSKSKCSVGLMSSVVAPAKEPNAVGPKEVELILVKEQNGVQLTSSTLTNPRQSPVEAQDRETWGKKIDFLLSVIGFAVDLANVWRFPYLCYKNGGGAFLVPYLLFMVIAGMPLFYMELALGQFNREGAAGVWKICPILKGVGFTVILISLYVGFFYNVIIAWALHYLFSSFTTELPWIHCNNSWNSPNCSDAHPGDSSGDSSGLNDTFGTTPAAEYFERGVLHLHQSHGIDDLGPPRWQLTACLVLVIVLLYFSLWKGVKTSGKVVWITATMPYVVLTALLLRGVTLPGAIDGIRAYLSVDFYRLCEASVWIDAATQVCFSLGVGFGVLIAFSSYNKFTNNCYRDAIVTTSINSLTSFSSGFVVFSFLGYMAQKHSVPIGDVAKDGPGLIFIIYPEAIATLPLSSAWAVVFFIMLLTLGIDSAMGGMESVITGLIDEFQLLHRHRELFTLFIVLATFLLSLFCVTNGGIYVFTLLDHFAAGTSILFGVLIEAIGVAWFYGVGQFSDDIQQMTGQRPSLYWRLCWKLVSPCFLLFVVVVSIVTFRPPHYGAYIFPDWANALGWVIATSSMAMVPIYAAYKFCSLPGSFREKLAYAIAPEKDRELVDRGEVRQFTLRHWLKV

SMILES: C=C(C)[C@@H]1CC[C@]2(C(=O)O)CC[C@]3(C)C(CC[C@@H]4[C@@]5(C)CC[C@H](O)C(C)(C)[C@@H]5CC[C@]43C)[C@@H]12 (stereo partly shown) [betulinic acid, Betulinic acid]
- startle response in the presence of the fear-cue (Sprague-Dawley rats; 1 mg/kg in peanut oil orally (gavage), 45-60 min after treatment (FIG. 4)): significantly attenuated the startle response in the presence of the fear-cue
- difference in startle amplitude (presence minus absence of the fear cue) (Sprague-Dawley rats; 1 mg/kg orally (gavage), vs peanut oil control (FIG. 4)): much lower
- entries into the open (anxiogenic) arm of the elevated plus maze (CD-1 strain of mice; CD-1 mice, 0.25 mg/kg i.p.): more often than controls
- entries into the open (anxiogenic) arm of the elevated plus maze (CD-1 strain of mice; CD-1 mice, 2.5 mg/kg i.p.): more often than controls
- proportion of time spent on the open arm of the maze (CD-1 strain of mice; CD-1 mice, 0.25 or 2.5 mg/kg i.p. (dose not singled out in the sentence)): increased significantly
- maximally effective dose (CD-1 strain of mice; mice, i.p., elevated plus maze, higher dose did not increase the effect further): 0.25 mg/kg
- affected by betulinic acid (adrenergic α1): none of the following neurotransmitters or proteins were affected
- affected by betulinic acid (MAO A): none of the following neurotransmitters or proteins were affected
- affected by betulinic acid (COMT): none of the following neurotransmitters or proteins were affected
- affected by betulinic acid (domaine D1): none of the following neurotransmitters or proteins were affected
- affected by betulinic acid (DA transporter): none of the following neurotransmitters or proteins were affected
- affected by betulinic acid (GABAA, BZP): none of the following neurotransmitters or proteins were affected
- affected by betulinic acid (Histamine H3): none of the following neurotransmitters or proteins were affected
- affected by betulinic acid (5-HT1): none of the following neurotransmitters or proteins were affected
- affected by betulinic acid (5-HT2): none of the following neurotransmitters or proteins were affected
- affected by betulinic acid (serotonin transporter): none of the following neurotransmitters or proteins were affected
- affected by betulinic acid (nicototinic): none of the following neurotransmitters or proteins were affected
- affected by betulinic acid (cannabinoid CB2): none of the following neurotransmitters or proteins were affected
- affected by betulinic acid (EGF): none of the following neurotransmitters or proteins were affected
- affected by betulinic acid (galanin GALR2): none of the following neurotransmitters or proteins were affected
- affected by betulinic acid (melanocortin MC4): none of the following neurotransmitters or proteins were affected
- affected by betulinic acid (neuropeptide Y1): none of the following neurotransmitters or proteins were affected
- affected by betulinic acid (neuropeptide Y2): none of the following neurotransmitters or proteins were affected
- affected by betulinic acid (neurotensin): none of the following neurotransmitters or proteins were affected
- affected by betulinic acid (opiate non-selective): none of the following neurotransmitters or proteins were affected
- affected by betulinic acid (somatostatin): none of the following neurotransmitters or proteins were affected
- affected by betulinic acid (tachykinin NK1): none of the following neurotransmitters or proteins were affected
- affected by betulinic acid (tachykinin NK3): none of the following neurotransmitters or proteins were affected
- affected by betulinic acid (VIP1): none of the following neurotransmitters or proteins were affected
- toxicity in a Hippocratic screen ([1]; 200 mg/kg): non-toxic
- toxicity in a Hippocratic screen ([1]; 400 mg/kg): non-toxic

Source: patent publication US20130065868A1, “ANXIOYTIC MARCGRAVIACEAE COMPOSITIONS CONTAINING BETULINIC ACID, BETULINIC ACID DERIVATIVES, AND METHODS” (UNIVERSITY OF OTTAWA, priority 2002, published 2013)
